Results on one molecule are retold here after patent US20260108547A1, “LEVERAGING L-FUCOSE-MEDIATED SIGNALING TO INDUCE MONOCYTE-DERIVED DENDRITIC CELL POLARIZATION” (H. LEE MOFFITT CANCER CENTER AND RESEARCH INSTITUTE, INC., priority 2022, published 2026).

In one assay the test system is HLA-DRB1. The assay can be described thus: qRT-PCR and immunoblot of HLA-DRB1 mRNA and protein levels in melanoma cells. The conditions noted are these: 250 μM. In kind it is cell-based, human. As for the experimental part:
Cells were lysed on ice in RIPA lysis buffer (25 mM Tris-HCl pH 7.6, 150 mM NaCl, 5 mM EDTA, 1% NP-40 or 1% Triton X-100, 1% sodium deoxycholate, 0.1% SDS in diH2O+protease and phosphatase inhibitors (ThermoFisher Scientific (Waltham, MA)), briefly sonicated, pelleted, and the resulting lysates were normalized by protein concentration using DC assay (BioRad Laboratories, (Hercules, CA)). The indicated samples were subjected to (12%) SDS-PAGE and immunoblot analysis using the indicated antibodies. Immunoblot imaging and analysis was performed using either an Odyssey FC scanner and ImageStudio (LiCor Biosciences, Lincoln, NE) or film.
RNA from cells subjected to the indicated treatments was extracted using Gene Elute Mammalian Total RNA Extraction System (Millipore Sigma (St. Louis, MO)). RNA was reversed transcribed to cDNA using High-Capacity cDNA Reverse Transcription Kit (ThermoFisher Scientific (Waltham, MA)). qRT-PCR analysis was performed using FastStart Universal SYBR Green Master Mix (Rox) (Roche Diagnostics, (Indianapolis, IN)) using a BioRad CFX96 Real-time system (BioRad Laboratories, (Hercules, CA)). The qRT-PCR cycles used were as follows: 95° C. for 10 min, 35 cycles of 95° C. for 15 seconds, 55° C. for 60 seconds,
and 72° C. for 30 seconds. Expression of the indicated genes was normalized to histone H3A expression. […]

Another assay relates to SW1 tumors. Kind of assay: itIC and splenic flow cytometric profiling, SW1 tumor-bearing C3H/HeN mice. In kind it is in vivo, mouse. To be noted: oral L-fuc; SW1 model. As for the experimental part: Tumors of SW1 or SM1 melanoma cells from […] or C57BL/6 mice, respectively) were digested using 1× tumor digest buffer (0.5 mg/mL Collagenase I, 0.5 mg/mL Collagenase IV, 0.25 mg/mL Hyalyronidase V, 0.1 mg/mL DNAse I in HBSS (Millipore Sigma (St. Louis, MO)). Tumors were homogenized using the Miltenyi MACs dissociator. Red blood cells were lysed using ACK lysis buffer (Life Technologies, (Grand Island, NY)). Tumor homogenate cells were counted using a standard hemocytometer.
Total TILs were gated first to single cells (based on forward scatter height vs width, followed by side scatter height vs. width). Live cells were gated from the Zombie negative population from the population above. TILs were gated based on splenocyte size from a control spleen. Individual immune subpopulations were sub-gated from the total TIL population using the following staining criteria: CD3^+ for CD3^+ T cells; CD3^+/CD4^+/CD8^− for CD4^+T cells; CD3^+/CD4^−/CD8^+ for CD8^+ T cells, CD11c^+/CD11b^+ for DCs; either NK1.1 (for C57/BL6 mice) or DX5 (for C3H/HeJ) for NK cells; CD11b^+/GR1^+ for MDSC-like cells; and F4/80^+ for macrophages. Single-cell suspensions from tumor and spleen tissue were stained with Live/Dead Zombie NIR (Biolegend, (San Diego, CA)) at 1:1,000 in PBS for 20 min. Cell suspensions were spun down and stained with the following with antibodies at 0.5 μg/ml per antibody: APC anti-mouse CD3, Pacific Blue anti-mouse CD4, BV785 anti-mouse CD8, PerCP anti-mouse CD25, FITC anti-mouse F4/80, PeCy7 anti-mouse CD11c, PE anti-mouse NK1.1 or PE anti-mouse DX5, and PerCP-Cy5.5 anti-mouse CD11b. After staining, the cells were washed and fixed (2% formaldehyde), followed by another wash and flow cytometric analysis. The compensation controls were prepared using 0.5 μg/mL of each antibody with UltraComp eBeads, (ThermoFisher Scientific (Waltham, MA)). All samples were subject to flow cytometric profiling using a LSR Flow Cytometer (BD Biosciences (San Jose, CA)) and analysis as indicated using FlowJo software (BD Biosciences (San Jose, CA)).

Assay [1] concerns moDCs. The assay can be described thus: moDC dendrite length, phagocytosis (bead uptake) and Fitc-dextran uptake. In kind it is cell-based. The source says: Our preliminary studies have begun to dissect and highlight moDC signaling changes induced by L-fuc treatment. Here, we present and discuss our novel findings on L-fuc-induced DC/moDC biology, the key mechanistic signaling changes that mediate these effects, and the important translational implications of these findings for efforts aimed at increasing/enhancing intratumoral DC function and anti-tumor immune responses.
Next we wanted to determine if L-fucose enhances the function phenotype of moDCs. […] Having determined that L-fucose alters the signaling of moDCs leading to an immunostimulatory phenotype, we next sought to identify other components of DC biology that are affected. To this end we examined L-fucose-treated mature dendritic cells for changes in (FIG. 26A) dendrite length and (FIG. 26B) phagocytosis by neutral bead uptake which may correlate with differential anti-tumor capacity in the TME.

Assay [2] concerns moDCs. Kind of assay: moDC cytokine production, qPCR and immunoblot of signaling pathways. In kind it is cell-based. The source says: To determine if the changes in DC polarization and CD209 expression were associated with differential signaling changes in moDCs we analyzed known suppressive and stimulatory pathways by (FIG. 25A) cytokine production and (FIG. 25B) qPCR. […] (C) To elucidate the mechanism by which L-fucose was repressing immunosuppression in moDCs we preformed immunoblot analysis of several key signaling pathways in moDC activation of cells treated +/−L-fucose and +/−maturation via LPS. Additionally, we identified transcription factors that may play a role in altering the signaling and cytokine profiles of moDC to further validate the changes in immunomodulatory activity we observe.

Assay [3] has as its system PD-L1. Kind of assay: Flow cytometric assessment of cell surface PD-L1, mouse melanoma cells (SW1, SM1). In kind it is cell-based. The protocol: (§1) Indicated cells were treated for 72 h with DMSO, 250 μM fucosyltransferase inhibitor (FUTi) (Millipore Sigma (St. Louis, MO)), or 250 μM of L-fucose (Biosynth (Oak Terrace, IL)). After 72 h, cells were stained with 0.1 μM PKH26 (Millipore Sigma (St. Louis, MO)) prior to fixation in 4% formaldehyde solution. The cells were stained with anti-HLA-DRB1 and fluorescein AAL, or anti-human or anti-mouse PD-L1 overnight. The following day the cells were washed 3 times prior to adding AlexaFluor 594 donkey anti-rabbit. Cells were washed 3 times and then subject to flow cytometric analyses using a FACSCalibur (BD Biosciences (San Jose, CA)). Samples were analyzed using FlowJo analysis software (BD Biosciences (San Jose, CA)). Median values of DRB1 and AAL were normalized to PKH26 values and statistical analysis was performed using GraphPad Prism.

Assay [4] deals with PD-L1. Kind of assay: Flow cytometric assessment of cell surface PD-L1, human melanoma cells (WM793). In kind it is cell-based. As for the experimental part:
as §1

As for `C[C@H](O)[C@@H](O)[C@@H](O)[C@H](O)C=O` [L-fucose], in the assay with HLA-DRB1, the “HLA-DRB1 mRNA and protein levels” value is recorded as “remained unchanged”. Moreover, in the assay on SW1 tumors, the “CD4+ and CD8+ T cells, most increased subpopulation of total itICs” value is reported as “doubled”; the “increased total itICs” value is on record as 10-50 fold; the splenic lymphocyte profiles entry is reported as “without altering splenic lymphocyte profiles”. Also, the “dendrite length of moDCs” value in the assay on moDCs [1] is “increased”. The “uptake of exogenous Fitc-dextran bait by L-fuc-induced moDCs” value in the assay with moDCs [1] (compared with untreated DCs) is given as “significantly increased rate”. Also, the “phagocytosis of moDCs” value with moDCs [1] (neutral bead uptake) is reported as “increased”. Moreover, in the assay on moDCs [2] (cytokine production, qPCR), the “immunosuppressive signature of DCs” value was “decreased immunosuppressive signature”. The “iNOS and p65 activation in moDC” value in the assay on moDCs [2] (immunoblot, +/- LPS maturation) was “decreased iNOS and p65 activation”. Also, the “cell surface levels of PD-L1” value in the assay on PD-L1 [3] is listed as “does not alter”. Moreover, the “cell surface levels of PD-L1” value in the assay with PD-L1 [4] was “does not alter”.
